Laboratory results from patent publication US7993884B2, “Beta-xylosidase for conversion of plant cell wall carbohydrates to simple sugars” (The United States of America as represented by the …, priority 2006, dated 2011).
“And” between values parts separate entries of the source, which are not always exact repeats. Equal entries are not always repeated. “Also recorded” adds a separate entry of the source. Where two headings read alike, the source gives them in different places.

How the values were obtained:
[1] = biological target: Selenomonas ruminantium GA192 β-D-xylosidase (SXA, parent SEQ ID NO: 2) variant D14A (Pseudoselenomonas ruminantium, UniProt O52575, D14A); assay: Steady-state kinetics of SXA mutant D14A with 4NP substrates
Protocol: (§1) Site-directed mutagenesis was performed using the QuikChange site-directed mutagenesis kit (Stratagene) according the manufacturer's instructions. […] Complete sequences were determined on a 3700 sequencer (Applied Biosystems) using T7 promoter and specific primers to confirm that only the intended mutations had been introduced. Lasergene software (DNAStar) was used to analyze the sequence data. pSRA1 and its mutated plasmids were used for the transformation of E. coli BL21(DE3). Transformants were inoculated to 50 mL Luria-Bertani (LB) broth supplemented with 50 mg ampicillin/mL and the flask was shaken overnight at 250 rpm and 37° C. Twenty mL of the overnight culture were transferred to a 2.8-liter baffled flask containing 1.0 liter SOB medium [2.0% tryptone, 0.5% yeast extract, 0.05% NaCl, 0.0186% KCl (all in wt/vol) and 10 mM MgSO4] supplemented with 50 mg ampicillin/mL. The culture was shaken at 250 rpm and 37° C. […] Cells were harvested by centrifugation and cell pellets were stored at −80° C. until use.
(§2) Initial purification steps and diafiltration steps were performed at 4° C. Chromatography was at room temperature (˜24° C.). Cells were thawed, suspended in 40 mL of 50 mM Tris-HCl, pH 7.5 (Buffer A) containing Complete protease inhibitor cocktail (Roche) and disrupted by sonication. Following centrifugation, the supernatant was brought to 30% saturation with respect to ammonium sulfate and centrifuged. […] The column was washed until absorbance at 280 nm of the eluate became minimal (˜200 mL) and developed with a 500-mL linear gradient (Buffer A+30% saturated ammonium sulfate to Buffer A).
(§3) Two methods were employed for determining initial rates. […] Initial rates were calculated from fitting the absorbance readings versus time to a line (minimum of 4 points per reaction progression) and by using an extinction coefficient of 17.4 mM^−1 cm^−1. […] The concentration of 4NP substrates was determined by incubating the substrate with excess enzyme until an end point was reached, adding an aliquot (0.01 to 0.1 mL) to 0.1 M NaOH, recording the absorbance at 400 nm and using the extinction coefficient of 18.3 cm^−1mM^−1. Unless indicated otherwise, for both Methods A and B, reactions were initiated by adding a small aliquot of enzyme (generally 7 μl of enzyme diluted into 10 mM sodium phosphate, pH 7.0, and incubated on wet ice or at ˜25° C.) to the 1-mL, temperature-equilibrated (25° C.) reaction mixtures. For pH studies, buffers of constant ionic strength (I=0.3 M), adjusted with NaCl, were used as indicated: 100 mM succinate-NaOH (pH 4.3-6), 100 mM sodium phosphate (pH 6-8), 30 mM sodium pyrophosphate (pH 8-9), glycine-NaOH (pH 9) and glycylglycine-NaOH (pH 9).

[2] = biological target: T1, Selenomonas ruminantium GA192 β-D-xylosidase (SXA), wild type, SEQ ID NO: 2 (Pseudoselenomonas ruminantium, UniProt O52575); assay: Steady-state kinetics of SXA with 4NP-glycosides (Example 1, Methods A and B)
Protocol: Kinetics with 4NP Substrates
(§4) Two methods were employed for determining initial rates. […] Initial rates were calculated from fitting the absorbance readings versus time to a line (minimum of 4 points per reaction progression) and by using an extinction coefficient of 17.4 mM^−1 cm^−1. In Method B (continuous monitoring), temperature-equilibrated reactions (1 mL) were monitored at 380 nm (for pH values below 6) or 400 nm (for pH values of 6 and above). Reactions were generally monitored 0.3 min for initial rate determinations. Delta extinction coefficients (product-substrate) used for molar conversion were determined by subtracting the absorbance of substrate (at pH 5 so even very minor contaminating 4NP would not contribute) from the absorbance of 4NP for each reaction condition. […] The concentration of 4NP substrates was determined by incubating the substrate with excess enzyme until an end point was reached, adding an aliquot (0.01 to 0.1 mL) to 0.1 M NaOH, recording the absorbance at 400 nm and using the extinction coefficient of 18.3 cm^−1mM^−1. Unless indicated otherwise, for both Methods A and B, reactions were initiated by adding a small aliquot of enzyme (generally 7 μl of enzyme diluted into 10 mM sodium phosphate, pH 7.0, and incubated on wet ice or at ˜25° C.) to the 1-mL, temperature-equilibrated (25° C.) reaction mixtures. For pH studies, buffers of constant ionic strength (I=0.3 M), adjusted with NaCl, were used as indicated: 100 mM succinate-NaOH (pH 4.3-6), 100 mM sodium phosphate (pH 6-8), 30 mM sodium pyrophosphate (pH 8-9), glycine-NaOH (pH 9) and glycylglycine-NaOH (pH 9).

SXA [3] = biological target: T2, SXA (Selenomonas ruminantium, UniProt O52575); assay: biochemical; settings: for Km: read-out: Km^4NPA, pH 5.3, 25° C.; for Ki: Ki^D-xylose, inhibition of SXA-catalyzed hydrolysis of 4NPA
SXA [4] = biological target: T2, SXA; settings: pH 5.3 and 25° C., relative to A2
[5] = biological target: T1, Selenomonas ruminantium GA192 β-D-xylosidase (SXA), wild type, SEQ ID NO: 2; assay: Steady-state kinetics of SXA with 4NPX2, A2 and X2-X6 by HPLC (Example 1)
Protocol: (§5) Samples (25 μL) were injected onto the column equilibrated with 0.1 M NaOH and developed with a 15-min linear gradient (0.1 M NaOH to 15 mM sodium acetate) at ˜25° C. and a flow rate of 1 mL min^−1.
Before (time=0 min) and after (time=1-6 min) initiating reactions with enzyme (7 μL), samples (0.05-0.1 mL) were removed and quenched with an equal volume of 0.5 M acetic acid and frozen. Following lyophilization, samples were dissolved in H2O and analyzed by HPLC. […] Results from two replicate reactions were combined to provide data points for the progress curves.
Before and after addition of enzyme (7 μL), 25-μl aliquots of the reaction mixtures were directly injected onto the HPLC column for quantification of product L-arabinose.
(§6) Quenched samples were analyzed by HPLC for D-xylose. Initial rates were determined from linear regressions of [D-xylose] produced versus reaction time. […] Four 1-mL replicate reactions were conducted to supply data points for the progress curves. Two parallel reactions were conducted, under the same conditions with the same reaction components, the absorbance at 400 nm was continuously monitored (20 min) for 4NP production, and the absorbance values were converted to mM 4NP concentrations by using a delta extinction coefficient (product-substrate) of 8.22 mM^−1 cm^−1.

SXA [6] = biological target: T2, SXA; assay: SXA-catalyzed hydrolysis of 4NP-glycoside substrates, initial rates (Methods A and B);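 as to all read-outs here: initial rates from 4-nitrophenol release, tracked by absorbance over roughly 0.3 min and converted using product-minus-substrate extinction differences, in 1 mL mixtures started by enzyme addition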; assay type: biochemical; settings: for Km / kcat Rel. to η/ηo = 1: Exper. 2: MES pH 6.00, Method B
Protocol: as §4

[7] = biological target: Selenomonas ruminantium GA192 β-D-xylosidase (SXA, parent SEQ ID NO: 2) variant E186A (Pseudoselenomonas ruminantium, UniProt O52575, E186A); assay: Steady-state kinetics of SXA mutant E186A with 4NP substrates
Protocol: as §1, §2, §3

SXA [8] = biological target: T2, SXA; settings: 100 mM sodium phosphate, pH 7.0, 25° C., not well determined
Protocol: as §5, §6

[9] = biological target: β-D-xylosidase/α-L-arabinofuranosidase (Selenomonas ruminantium, UniProt O52575); assay: Inhibition of the enzyme by monosaccharides and ethanol (detailed description); assay type: biochemical, Selenomonas ruminantium GA192
SXA [10] = biological target: T2, SXA; assay: biochemical; settings: inhibition of SXA-catalyzed hydrolysis of 4NPX, I=0.3 M, competitive
Protocol: Reactions were monitored continuously for 0.3 min at 400 nm to determine initial rates. Initial-rate data were fitted to equation 6, where v is the initial rate, kcat is the rate of the reaction when saturated with substrate, S is the substrate concentration, Km is the Michaelis constant, I is the inhibitor concentration (e.g., D-glucose), and Ki is the dissociation constant of inhibitor from the enzyme-inhibitor complex.

SXA [11] = biological target: T2, SXA; assay: pH stability of SXA and protection from low pH inactivation at pH 4.0 by monosaccharides; settings: pH 4.0, 25° C.
Protocol: Buffers of constant ionic strength (I=0.3 M), adjusted with NaCl, were used as indicated: 100 mM succinate-NaOH (pH 3.5-6), 100 mM sodium phosphate (pH 6-8), 30 mM sodium pyrophosphate (pH 8-9), and 100 mM glycine-NaOH (pH 9-10). […] Initial rates were determined by monitoring reactions continuously at 400 nM for 0.3 min. […] Relative activity remaining data were fitted to equation 3, which describes a first order decay: A is the relative activity remaining at varied times of preincubation, A0 is the relative activity remaining at time zero of the preincubation, kobs is the first order rate constant, and t is the time of preincubation. Apparent affinities for D-xylose and D-glucose were determined by fitting kobs values from the monosaccharide protection studies to equation 4 where kobs is the observed first order rate constant for the decay, k0 is the first order rate constant in the absence of ligand (e.g., D-xylose), I is the ligand concentration in the preincubation mixture, and Ki is the dissociation constant of ligand from the enzyme-ligand complex.

SXA [12] = biological target: T2, SXA; settings: pH 5.3, 55° C.; for KI (inactivation): read-out: Ki, dissociation constant from protection against thermal inactivation, kobs fitted to equation 4
Protocol: Initial rates were determined by monitoring reactions continuously at 400 nM for 0.3 min. […] Relative activity remaining data were fitted to equation 3, which describes a first order decay: A is the relative activity remaining at varied times of preincubation, A0 is the relative activity remaining at time zero of the preincubation, kobs is the first order rate constant, and t is the time of preincubation. Apparent affinities for D-xylose and D-glucose were determined by fitting kobs values from the monosaccharide protection studies to equation 4 where kobs is the observed first order rate constant for the decay, k0 is the first order rate constant in the absence of ligand (e.g., D-xylose), I is the ligand concentration in the preincubation mixture, and Ki is the dissociation constant of ligand from the enzyme-ligand complex.
Ligand protection studies contained varied concentrations of D-xylose or D-glucose in the pH 5.3 preincubation buffer at 55° C.

SXA [13] = biological target: T2, SXA; assay: biochemical; settings: pH 5.3, 25° C.
[14] = 100 mM succinate-NaOH, pH 5.3, 25° C, Method A
[15] = I=0.3 M, 25° C., Eq. 7 (4NPX), Eq. 5 (4NPA)

Question: Which kcat [1, 14] does the source give for `O=[N+]([O-])c1ccc(O[C@@H]2O[C@@H](CO)[C@H](O)[C@H]2O)cc1` [4NPA, 4-nitrophenyl-α-L-arabinofuranoside] here?
Answer: Its kcat is 0.000936 ± 0.000012 s⁻¹.

Question: And the “factor by which kcat is degraded vs wild type” value ([1]; pH 5.3, 25° C.)?
Answer: Its value is 3000.

Question: What about the kcat ([2]; 100 mM MES-NaOH, pH 6.00, 25° C, Method B, 50% sucrose, η/ηo 6.85) of the same molecule?
Answer: Its kcat is 2.87 ± 0.12 s⁻¹.

Question: And the kcat ([2]; 100 mM MES-NaOH, pH 6.00, 25° C, Method B, η/ηo 1.00)?
Answer: The kcat was 2.99 ± 0.05 s⁻¹.

Question: What about the kcat ([2]; 100 mM succinate-NaOH, pH 5.3, 25° C, Method A, no sucrose) of the same molecule?
Answer: The kcat was 2.68 ± 0.06 s⁻¹.

Question: And the “affinity of dianionic SXA (D14^−E186^−), higher than that of monoanionic SXA (D14^−E186^H)” value ([2]; from pH dependence of 1/Km)?
Answer: The value was “no affinity”.

Question: What about the “kcat Rel. to η/ηo = 1” value ([2]; pH 6.00, η/ηo 6.85) of the same molecule?
Answer: Its value is 0.960 ± 0.040.

Question: What about the Km (SXA [3]; FIG. 22A experiment (D-xylose α:β 6:1)) of the same molecule?
Answer: Its Km is 880 ± 130 µM.

Question: And the Km (SXA [3]; FIG. 22B experiment (D-xylose α:β 1:2.5))?
Answer: Its Km is 900 ± 13 µM.

Question: And the relative kcat values (SXA [4])?
Answer: The relative kcat values was 34.

Question: And the “kcat factor between 4NPA and A2” value ([5]; 4NPA larger / A2 reduced)?
Answer: The value was 36 fold.

Question: What about the relative kcat value ([5]; pH 5.3, 25° C, A2 = 1) of the same molecule?
Answer: Its relative kcat value is 34.

Question: And the “pH-independent kcat/Km” value (SXA [6])?
Answer: Its value is 5.10±0.07 s^−1 mM^−1.

Question: And the “Relative Rate” value (SXA [6]; 5 mM 4NP glycoside, 100 mM succinate-NaOH, pH 5.3, 25° C., Method A, initial rate relative to 4NPX)?
Answer: The value was 0.101 ± 0.003.

Question: What about the “pH-independent 1/Km” value (SXA [6]; 1/Km versus pH, Eq. 4 (4NPX), Eq. 5 (4NPA)) of the same molecule?
Answer: The value was 1.60±0.02 mM^−1.

Question: And the Km (SXA [6]; η/ηo 1.00)?
Answer: Its Km is 745 ± 36 µM.

Question: And the “kcat Rel. to η/ηo = 1” value (SXA [6]; η/ηo 1.00)?
Answer: The value was 1.00.

Question: And the Km (SXA [6]; η/ηo 6.85 (50% sucrose))?
Answer: Its Km is 754 ± 101 µM.

Question: And the “kcat Rel. to η/ηo = 1” value (SXA [6]; η/ηo 6.85 (50% sucrose))?
Answer: Its value is 0.960 ± 0.040.

Question: What about the “pKa of kcat versus pH (single group)” value (SXA [6]; I=0.3 M, 25° C., Eq. 4) of the same molecule?
Answer: The value was 3.6 and 3.64±0.10.

Question: And the “pKa1 of kcat/Km versus pH” value (SXA [6]; I=0.3 M, 25° C., Eq. 5)?
Answer: The value was ~5.0 and 5.06±0.02.

Question: What about the “pKa2 of kcat/Km versus pH” value (SXA [6]; I=0.3 M, 25° C., Eq. 5) of the same molecule?
Answer: Its value is 7.20±0.02.

Question: And the “pKa1 of 1/Km versus pH” value (SXA [6]; [15])?
Answer: Its value is 5.00±0.03.

Question: And the “pKa2 of 1/Km versus pH” value (SXA [6]; [15])?
Answer: Its value is 7.16±0.03.

Question: What about the “binding to dianionic SXA (D14^−E186^−)” value (SXA [6]; from pH dependencies) of the same molecule?
Answer: The value was “weakly, if at all; also recorded: no affinity”.

Question: And the kcat [7, 14]?
Answer: The kcat was 0.000239 ± 0.000008 s⁻¹.

Question: And the “factor by which kcat is degraded vs wild type” value ([7]; pH 5.3, 25° C.)?
Answer: The value was 11000.

Question: With `O=[N+]([O-])c1ccc(O[C@@H]2OC[C@@H](O[C@@H]3OC[C@@H](O)[C@H](O)[C@H]3O)[C@H](O)[C@H]2O)cc1` [4NPX2, 4-Nitrophenyl-β-D-xylobioside] as the molecule, how does the “kcat (4NPX2 to 4NPX + D-xylose)” value (SXA [8]) read?
Answer: Its value is 50.5 ± 25.7 s⁻¹.

Question: And the Km (SXA [8]; read-out: Km (4NPX2 to 4NPX + D-xylose))?
Answer: The Km was 690 ± 430 µM.

Question: Which results are given for `O=C[C@H](O)[C@@H](O)[C@H](O)[C@H](O)CO` [D-glucose]?
Answer: Ki [9]: 27 ± 0.4 mM; Ki (SXA [10]; pH 5.3, 25° C.): 79 ± 2.3 mM; Ki (SXA [10]; pH 7.0, 25° C.): 34.5 ± 0.7 mM; Ki (SXA [10]; pH 9.0, 25° C.): 18.7 ± 0.6 mM; kobs of SXA inactivation in presence of monosaccharide (SXA [11]; 234 mM): 0.0210 ± 0.0016 min⁻¹; kobs of SXA inactivation in presence of monosaccharide (SXA [11]; 467 mM): 0.0124 ± 0.0007 min⁻¹; kobs of SXA inactivation in presence of monosaccharide (SXA [12]; 93.5 mM): 0.00949 ± 0.00069 min⁻¹; kobs of SXA inactivation in presence of monosaccharide (SXA [12]; 187 mM): 0.00588 ± 0.00077 min⁻¹; kobs of SXA inactivation in presence of monosaccharide (SXA [12]; 280 mM): 0.00445 ± 0.00081 min⁻¹; kobs of SXA inactivation in presence of monosaccharide (SXA [12]; 374 mM): 0.00336 ± 0.00095 min⁻¹; KI (inactivation) (SXA [12]): 56.1 ± 0.8 mM

Question: With `O=C[C@H](O)[C@@H](O)[C@H](O)CO` [D-xylose] as the molecule, how does the Ki ([9]; read-out: Ki) read?
Answer: Its Ki is 4.2 ± 0.1 mM.

Question: What about the Ki (SXA [3]; D-xylose α:β 1:2.5, pH 7.0 (100 mM sodium phosphate, I=0.3 M), 25° C.) of the same molecule?
Answer: Its Ki is 5.15 ± 0.08 mM.

Question: And the Ki (SXA [3]; D-xylose α:β 6:1, pH 7.0 (100 mM sodium phosphate, I=0.3 M), 25° C.)?
Answer: The Ki was 4.97 ± 0.05 mM.

Question: What about the Ki (SXA [3]; D-xylose α:β ratio of 1:2.5, pH 5.3, 25° C., competitive) of the same molecule?
Answer: The Ki was 11.8 ± 0.3 mM.

Question: And the Ki (SXA [3]; D-xylose α:β ratio of 6:1, pH 5.3, 25° C., competitive)?
Answer: The Ki was 11.9 ± 0.3 mM.

Question: And the Ki (SXA [10]; pH 4.3, 25° C.)?
Answer: The Ki was 43.5 ± 1.1 mM.

Question: And the Ki (SXA [10]; pH 5.3, 25° C.)?
Answer: The Ki was 7.62 ± 0.26 mM.

Question: And the Ki (SXA [10]; pH 7.0, 25° C.)?
Answer: Its Ki is 3.82 ± 0.06 mM.

Question: What about the Ki (SXA [10]; pH 9.0, 25° C.) of the same molecule?
Answer: The Ki was 3.21 ± 0.14 mM.

Question: And the Ki (SXA [13]; Ki^D-xylose, inhibition of SXA-catalyzed hydrolysis of 4NPX, Eq. 3 noncompetitive (mixed), D-xylose α:β 1:2.5)?
Answer: The Ki was 9.63 ± 0.3 mM.

Question: And the Ki (SXA [13]; Kis^D-xylose·4NPX, Eq. 3)?
Answer: The Ki was 15.9 ± 2.1 mM.

Question: What about the “kobs of SXA inactivation in presence of monosaccharide” value (“kobs of SXA inactivation” for short) (SXA [11]; 46.7 mM) of the same molecule?
Answer: Its value is 0.0335 ± 0.0008 min⁻¹.

Question: What about the “kobs of SXA inactivation” value (SXA [11]; 93.5 mM) of the same molecule?
Answer: The value was 0.0186 ± 0.0004 min⁻¹.

Question: What about the “kobs of SXA inactivation” value (SXA [11]; 280 mM) of the same molecule?
Answer: The value was 0.00614 ± 0.00036 min⁻¹.

Question: What about the KI (inactivation) (SXA [11]; read-out: Ki, dissociation constant from protection against low pH inactivation, kobs fitted to equation 4) of the same molecule?
Answer: The KI (inactivation) was 31.7 ± 2.8 mM.

Question: And the Ki (SXA [6]; read-out: Ki(xylose))?
Answer: The Ki was 7.4 mM.

Question: What about the “kobs of SXA inactivation” value (SXA [12]; 18.7 mM) of the same molecule?
Answer: The value was 0.0132 ± 0.0010 min⁻¹.

Question: And the “kobs of SXA inactivation” value (SXA [12]; 46.7 mM)?
Answer: Its value is 0.00649 ± 0.00087 min⁻¹.

Question: And the “kobs of SXA inactivation” value (SXA [12]; 93.5 mM)?
Answer: The value was 0.00326 ± 0.00056 min⁻¹.

Question: What about the “kobs of SXA inactivation” value (SXA [12]; 280 mM) of the same molecule?
Answer: The value was 0.000917 ± 0.00033 min⁻¹.

Question: What about the KI (inactivation) (SXA [12]) of the same molecule?
Answer: The KI (inactivation) was 17.6 ± 1.8 mM.

Question: How did the Ki ([9]; read-out: Ki) turn out when `O=C[C@H](O)[C@@H](O)[C@@H](O)CO` [L-arabinose] was run?
Answer: Its Ki is 20 ± 0.5 mM.
